From patent publication US8703811B2, “Small molecule inhibitors of Plasmodium falciparum dihydroorotate dehydrogenase” (Genzyme Corporation, priority 2008, dated 2014)

Legend:
[1] = Renal Proximal Tubule Epithelial Cell Toxicity Screen; type: cell-based
Method: The Renal Proximal Tubule Epithelial Cell Toxicity Screen is designed to determine whether compound mixtures, breakouts or single compounds are toxic to normal renal epithelial cells. […] Basically, the screen consists of plating renal epithelial cells, exposing them to the desired compound(s) for 4 days and measuring cell viability using the Alamar Blue reagent.
Harvested Kidney Epithelial cells were diluted in REGM to 1.5×10^4 cells/mL. […] NOTE: One plate, the T=0 plate required that 20-30 wells be seeded, and all the other plates had 96 wells seeded. Plates were incubated in 37° C./5% CO2 incubator for 24 hours.
(§1) Alamar Blue solution (25 μL/well) was added to the T=0 plate and mixed. The plate was incubated in 37° C./5% CO2 incubator for 4 hours, mixed and then the fluorescence was measured. 10% Tween 20 stock (10 μL) was added into rows A-D in column 1 (positive control). DMSO (0.5 μL) was added into column 2 (negative control). Compounds were placed into designated wells for desired testing as follows:
Plates were mixed on the shaker, and then incubated in 37° C./5% CO2 incubator for 96 hours. Day 6:
Alamar Blue solution (25 μL/well) was added to the plates containing the compounds and mixed. Plates were incubated in 37° C./5% CO2 incubator for 4 hours, mixed and the fluorescence was measured.

[2] = tested on: P. falciparum D10-scDHODH; experiment: Inhibition of transgenic D10-scDHODH parasites, [3H]-hypoxanthine uptake; type: cell-based
Method: (§2) P. falciparum strains D10, 3D7, HB3, and Dd2 were obtained from the Malaria Research and Reference Reagent Resource Center (Manassas, Va.). The parasite strains were maintained in vitro by method of Trager and Jensen. The inhibition of P. falciparum growth in the presence of drug was assessed by the relative reduction of [^3H]-hypoxanthine uptake as previously described. Inhibition data were fitted to Equation 1 using non-linear regression analysis except that the relative velocity of parasite growth was substituted for the rate of product formation.
Transgenic parasites expressing scDHODH were generated as described by Painter et al. except that full length scDHODH was cloned directly into the pGem3Z vector without a GFP tag. The resultant plasmid was transfected into ring stages of P. falciparum D10 by electroporation and maintained in culture using standard methods under the selection of WR99210.

[3] = Normal Human Dermal Fibroblast Toxicity Screen; type: cell-based; details: human, normal human dermal fibroblasts; four days exposure, Alamar Blue; read-out: Dermal Fibroblast LC50
Method: The Normal Human Dermal Fibroblast Toxicity Screen Protocol is designed to determine whether compound mixtures, breakouts or single compounds are toxic to normal human dermal fibroblasts. The screen involves plating the dermal fibroblasts and then exposing them to the compounds for four days, then cell viability is measured using Alamar Blue reagent.
Harvested Dermal Fibroblast cells were diluted in Growth Media to 0.25 to 0.3×10^5 cells/mL. […] NOTE: One plate, the T=0 plate required that 20-30 wells be seeded and all the other plates had 96 wells seeded. Plates were incubated in 37° C./5% CO2 incubator for 24 hours.
as §1, with “the plate was agitated.” for “mixed.”, “plate” for “plate was incubated”, “incubator was incubated” for “incubator”, “3” for “4”, “agitated the” for “mixed”, “and” for “and then”
Plates were mixed on the shaker, then incubated in 37° C./5% CO2 incubator for 96 hours.
Alamar Blue solution (25 μL/well) was added to the plates containing the compounds, and the plates were agitated. The plates were incubated in 37° C./5% CO2 incubator for 3 hours, agitated and then the fluorescence was measured.

pvDHODH = pvDHODH (Plasmodium vivax, UniProt A5K1N1); experiment: DCIP assay, pvDHODH; type: biochemical, P. vivax; details: 200 μM L-DHO, 18 μM CoQD, 100 μM DCIP, 20 nM enzyme
Sequence of pvDHODH (A5K1N1 1-572): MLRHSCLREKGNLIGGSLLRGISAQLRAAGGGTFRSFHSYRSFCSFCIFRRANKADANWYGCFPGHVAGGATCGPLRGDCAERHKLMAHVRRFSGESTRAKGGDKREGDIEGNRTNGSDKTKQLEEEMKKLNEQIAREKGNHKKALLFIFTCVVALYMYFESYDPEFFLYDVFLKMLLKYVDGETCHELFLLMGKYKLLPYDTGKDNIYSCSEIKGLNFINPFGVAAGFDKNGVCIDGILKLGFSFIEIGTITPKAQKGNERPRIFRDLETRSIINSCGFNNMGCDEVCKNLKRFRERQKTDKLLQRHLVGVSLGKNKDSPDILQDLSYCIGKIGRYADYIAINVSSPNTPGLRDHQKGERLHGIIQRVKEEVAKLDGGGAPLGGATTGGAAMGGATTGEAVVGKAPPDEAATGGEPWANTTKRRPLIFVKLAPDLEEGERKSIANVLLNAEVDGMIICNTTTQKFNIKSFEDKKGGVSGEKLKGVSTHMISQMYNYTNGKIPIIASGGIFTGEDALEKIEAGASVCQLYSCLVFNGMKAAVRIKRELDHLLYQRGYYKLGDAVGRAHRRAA
Text: (§3) Type 2 DHODH activity was monitored with either the direct assay measuring the formation of orotate or via a chromogen reduction assay using DCIP. Although the extinction coefficient and absorption wavelength are preferable for the chromogen reduction assay, the inorganic electron acceptor DCIP can be utilized by DHODH as the final electron acceptor in lieu of CoQn when the endogenous substrate is at a low concentration. As such, the direct assay was used to measure the binding affinity of pfDHODH to CoQD and L-DHO. The enzymatic reaction was performed by varying the L-DHO concentration (1-400 μM) or CoQD concentration (1-200 μM) while keeping the other substrate constant and in excess. The formation of orotate was measured continuously at 296 nm (ε296=4.3 mM^−1 cm^−1). Inhibition of DHODH by small molecules was evaluated using the chromogen based assay with a final substrate concentration of 200 μM L-DHO, 18 μM CoQD, and 100 μM DCIP, unless otherwise noted. The reduction of DCIP was monitored at 600 nm (ε600=18.8 mM^−1 cm^−1).
(§4) Substrate specificity and enzyme inhibition data was analyzed with GraphPad Prism Version 4 for Windows (GraphPad Software). Kinetic constants were calculated by non-linear regression fitting of the data to the Michaelis-Menten equation [36]. IC50 values were determined by non-linear regression fitting of the data to Equation 1: […]

pfDHODH [4] = target: T1, pfDHODH (Plasmodium falciparum (isolate 3D7), UniProt Q08210); experiment: DHODH chromogen reduction (DCIP) assay, pfDHODH; type: biochemical, P. falciparum; details: 200 μM L-DHO
T1 sequence (Q08210 159-565 limits assumed): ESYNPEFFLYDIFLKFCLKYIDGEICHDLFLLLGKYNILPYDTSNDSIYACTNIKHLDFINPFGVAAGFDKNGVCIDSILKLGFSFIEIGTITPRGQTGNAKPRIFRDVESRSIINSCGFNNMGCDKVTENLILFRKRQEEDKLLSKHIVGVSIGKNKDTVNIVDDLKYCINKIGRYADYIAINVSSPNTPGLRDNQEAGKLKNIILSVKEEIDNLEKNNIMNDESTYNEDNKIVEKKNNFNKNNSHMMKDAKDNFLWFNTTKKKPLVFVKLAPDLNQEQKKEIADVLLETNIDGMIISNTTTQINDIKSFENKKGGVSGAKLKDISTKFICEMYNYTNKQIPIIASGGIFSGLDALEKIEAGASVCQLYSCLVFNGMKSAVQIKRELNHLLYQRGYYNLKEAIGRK

pfDHODH [5] = target: T1, pfDHODH; experiment: pfDHODH activity with FeCy as electron acceptor; details: read-out: % Inhibition of Product Formation Rate with 50 μM Inhibitor, FeCy
Method: Inhibitors of DHODH, as classified by the chromogen reduction assay, were also evaluated for activity using FeCy as an electron acceptor. A final concentration of 5-50 nM DHODH, 200 μM L-DHO and 100 μM FeCy in Buffer C was used in this assay. Both the reduction of FeCy and the formation of orotate was monitored at 420 nm (ε420=1 mM^−1 cm^−1) and 290 nm (ε280=2 mM^−1 cm^−1), respectively, noting that two molecules of FeCy are reduced for one molecule of L-DHO. As with the previous assays, the reaction was performed at 25° C. and initiated with the addition of enzyme.

P. falciparum 3D7 = experiment: Inhibition of in vitro P. falciparum culture, [3H]-hypoxanthine uptake, 3D7; type: cell-based; details: Plasmodium falciparum, 3D7, Erythrocyte; [3H]-hypoxanthine uptake by parasite infected erythrocytes; read-out: 3D7 IC50
Procedure, shortened: (§5)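 Parasite growth inhibition measured as relative reduction of [3H]-hypoxanthine uptake in in vitro cultures. Values from non-linear regression fit, using relative growth velocity in place of product-formation rate.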

scDHODH = scDHODH (Saccharomyces cerevisiae (strain ATCC 204508 / S288c) (Baker's yeast), UniProt P28272); experiment: DCIP assay with fumarate, scDHODH; type: biochemical; details: 115 μM fumarate in lieu of CoQD
Sequence of scDHODH (P28272 whole entry): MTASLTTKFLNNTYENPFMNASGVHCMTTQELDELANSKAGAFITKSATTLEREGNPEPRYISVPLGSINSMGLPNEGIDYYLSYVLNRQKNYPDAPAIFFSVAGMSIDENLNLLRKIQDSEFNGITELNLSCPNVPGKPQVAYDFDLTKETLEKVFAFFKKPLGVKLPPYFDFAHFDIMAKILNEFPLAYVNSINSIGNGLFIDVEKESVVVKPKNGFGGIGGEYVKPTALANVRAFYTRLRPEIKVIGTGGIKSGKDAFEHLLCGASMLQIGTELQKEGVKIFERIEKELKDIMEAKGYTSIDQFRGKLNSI

pbDHODH = pbDHODH (Plasmodium berghei, UniProt A0A509AEH5); experiment: DCIP assay, pbDHODH; type: biochemical, P. berghei; details: 200 μM L-DHO, 18 μM CoQD, 100 μM DCIP, 20 nM enzyme
Sequence of pbDHODH (A0A509AEH5 1-517): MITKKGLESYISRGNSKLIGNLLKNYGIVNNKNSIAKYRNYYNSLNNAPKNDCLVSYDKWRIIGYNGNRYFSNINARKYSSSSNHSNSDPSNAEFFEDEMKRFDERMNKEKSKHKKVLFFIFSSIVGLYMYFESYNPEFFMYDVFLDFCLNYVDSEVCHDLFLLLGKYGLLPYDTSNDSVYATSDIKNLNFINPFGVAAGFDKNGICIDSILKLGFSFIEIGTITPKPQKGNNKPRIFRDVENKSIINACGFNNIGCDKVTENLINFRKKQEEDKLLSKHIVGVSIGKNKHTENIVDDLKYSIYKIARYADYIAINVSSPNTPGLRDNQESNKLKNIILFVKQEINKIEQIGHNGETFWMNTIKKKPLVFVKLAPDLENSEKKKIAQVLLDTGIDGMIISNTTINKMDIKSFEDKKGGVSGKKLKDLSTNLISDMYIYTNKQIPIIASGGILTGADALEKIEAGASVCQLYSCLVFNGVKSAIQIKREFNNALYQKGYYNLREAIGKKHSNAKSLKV
Text: as §3, §4

P. falciparum Dd2 = experiment: Inhibition of in vitro P. falciparum culture, [3H]-hypoxanthine uptake, Dd2; type: cell-based; details: Plasmodium falciparum, DD2, Erythrocyte, [3H]-hypoxanthine uptake by parasite infected erythrocytes; read-out: Dd2 IC50
Procedure, shortened: as §5

hsDHODH = hsDHODH (Homo sapiens (Human), UniProt Q02127); experiment: DCIP assay, hsDHODH; type: biochemical; details: DCIP assay; 200 μM L-DHO, 18 μM CoQD, 100 μM DCIP, 20 nM enzyme; read-out: hsDHODH IC50
Sequence of hsDHODH (Q02127 29-395 limits assumed): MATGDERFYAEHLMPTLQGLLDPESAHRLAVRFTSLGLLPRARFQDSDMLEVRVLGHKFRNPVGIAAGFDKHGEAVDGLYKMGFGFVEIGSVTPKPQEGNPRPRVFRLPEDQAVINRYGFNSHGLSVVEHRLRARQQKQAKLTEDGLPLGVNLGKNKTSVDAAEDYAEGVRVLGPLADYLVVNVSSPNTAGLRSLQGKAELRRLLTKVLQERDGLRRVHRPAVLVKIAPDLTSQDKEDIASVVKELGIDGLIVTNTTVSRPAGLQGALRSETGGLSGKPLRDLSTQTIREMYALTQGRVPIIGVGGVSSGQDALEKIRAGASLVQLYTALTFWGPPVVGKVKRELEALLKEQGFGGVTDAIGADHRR
Text: as §3, §4

P. falciparum HB3 = experiment: Inhibition of in vitro P. falciparum culture, [3H]-hypoxanthine uptake, HB3; type: cell-based; details: Plasmodium falciparum, HB3, Erythrocyte; [3H]-hypoxanthine uptake by parasite infected erythrocytes; read-out: HB3 IC50
Method: as §2

P. falciparum D10 = experiment: Inhibition of in vitro P. falciparum culture, [3H]-hypoxanthine uptake, D10; type: cell-based; details: Plasmodium falciparum, D10, Erythrocyte; [3H]-hypoxanthine uptake by parasite infected erythrocytes; read-out: D10 IC50
Method: as §2

O=C(NC1CC1)c1ccc(N2CCSc3ccccc32)s1 [Compound 5, 5(2H-benzo[b][1,4]thiazin-4(3H)-yl)-N-cyclopropylthiophene-2-carboxamide]
CC50 at 96 h [1]: > 62000 nM
IC50 ([2]; Plasmodium falciparum, D10, read-out: D10-scDHODH IC50): > 10000 nM
efficacy against D10-scDHODH strain compared to D10 parent strain ([2]; dose-effect curves, FIG. 5): significantly reduced
CC50 at 96 h [3]: > 62000 nM
IC50 (pvDHODH): 280 ± 10 nM
inhibition at 50 µM (pfDHODH [4]; 50 μM inhibitor, 100 μM CoQD, 60 μM DCIP, read-out: % Inhibition of Product Formation Rate with 50 μM Inhibitor, CoQD): 97%
IC50 (pfDHODH [4]; DCIP assay, 18 μM CoQD, 100 μM DCIP, 20 nM enzyme, read-out: pfDHODH IC50): 250 ± 30 nM
inhibition at 50 µM (pfDHODH [5]): 23%
IC50 (P. falciparum 3D7): 890 nM
IC50 (scDHODH): > 10000 nM
IC50 (pbDHODH): 380 ± 60 nM
IC50 (P. falciparum Dd2): 620 nM
IC50 (hsDHODH): 7900 ± 400 nM
IC50 (P. falciparum HB3): 910 nM
IC50 (P. falciparum D10): 950 nM
